Converted amounts (≈) assume the structure as drawn. Where two headings read alike, the source gives them in different places.
Assays:
[1] = tested on: Staphylococcus aureus ATCC29213; experiment: Minimal Inhibitory Concentration (MIC) testing, broth microdilution or agar dilution (CLSI); format: cell-based
Procedure: Minimal Inhibitory Concentration (MIC) Testing
Compounds of this invention were tested for antimicrobial activity by susceptibility testing in liquid or on solid media. MICs for compounds against each strain were determined by the broth microdilution or agar dilution method according to the guidelines of the Clinical Laboratories and Standards Institute, formerly the National Committee for Clinical Laboratory Standards (Clinical Laboratories and Standards Institute. Methods for Dilution Antimicrobial Susceptibility Tests for Bacteria That Grow Aerobically; Approved Standard—Seventh Edition. Document M7-A7. CLSI, Wayne, Pa., 2006; Clinical Laboratories and Standards Institute.
Activities were scored as ‘A’ if the MIC was less than or equal to 0.125 micrograms/ml, ‘B’ if the MIC was 0.25 to 4 micrograms/ml and ‘C’ if the MIC was greater than 4 micrograms/ml.

[2] = Staphylococcus aureus ATCC29213, MIC scored as class, read-out: Staphylococcus aureus MICs Activity

Row | MIC [1, 2] [µg/mL] | melting point [°C] | SMILES | MIC ([1]; Staphylococcus aureus, ATCC29213, read-out: Staphylococcus aureus MICs Activity) [µg/mL]
1 | > 4 |  | N=C(N)c1c(F)ccc(OCc2nc(-c3ccc(Cl)cc3)ns2)c1F [Example 7, 3-((3-(4-chlorophenyl)-1,2,4-thiadiazol-5-yl)methoxy)-2,6-difluorobenzimidamide] | 
2 |  |  | O=c1[nH]c(-c2c(F)ccc(OCc3nc(-c4ccc(Cl)cc4)no3)c2F)no1 [Example 4, 3-{3-[3-(4-Chloro-phenyl)-[1,2,4]oxadiazol-5-ylmethoxy]-2,6-difluorophenyl}-4H-[1,2,4]oxadiazol-5-one] | > 4
3 | 0.25 to 4 (≈ 0.651 to 10.4 µM) |  | CO/N=C(\N)c1c(F)ccc(OCc2nc3cc(Cl)ccc3s2)c1F [Example 2, 3-[(5-Chloro-1,3-benzothiazol-2-yl)methoxy]-2,6-difluoro-N′-methoxybenzenecarboximidamide] | 
4 | > 4 |  | N=C(N)c1c(F)ccc(OCc2nc3cc(Cl)ccc3s2)c1F [Example 3, 3-[(5-Chloro-1,3-benzothiazol-2-yl)methoxy]-2,6-difluorobenzenecarboximidamide] | 
5 | < 0.125 |  | N/C(=N\O)c1c(F)ccc(OCc2nc(-c3ccc(Cl)cc3)ns2)c1F [Example 5, 3-[3-(4-Chlorophenyl)-[1,2,4]thiadiazol-5-ylmethoxy]-2,6-difluoro-N-hydroxybenzamidine] | 
6 | > 4 |  | CS(=O)(=O)/N=C(\N)c1c(F)ccc(OCc2nc(-c3ccc(Cl)cc3)ns2)c1F [Example 8] | 
7 | > 4 | 169 to 170 | N/C(=N\O)c1c(F)ccc(OCc2nc3cc(Cl)ccc3s2)c1F [Example 1, 3-[(5-Chloro-1,3-benzothiazol-2-yl)methoxy]-2,6-difluoro-N′-hydroxybenzenecarboximidamide] | 
8 | < 0.125 |  | COc1ncc(-c2csc(COc3ccc(F)c(/C(N)=N/O)c3F)n2)s1 [Example 9, 2,6-difluoro-N′-hydroxy-3-((2′-methoxy-4,5′-bithiazol-2-yl)methoxy) benzimidamide] | 
9 | 0.25 to 4 (≈ 0.57 to 9.11 µM) |  | CC(=O)O/N=C(\N)c1c(F)ccc(OCc2nc(-c3ccc(Cl)cc3)ns2)c1F [Example 6] | 

Source: patent publication US8415383B2, “Substituted benzamidines as antibacterial agents” (Biota Scientific Management Pty Ltd, priority 2007, dated 2013)
